Test results taken from patent publication US20250019385A1, “SPIROCYCLIC ANNULATED 2-AMINO-3-CYANO THIOPHENES AND DERIVATIVES FOR THE TREATMENT OF CANCER” (Boehringer Ingelheim International GmbH, priority 2023, published 2025).
In brackets after ≈: the same amount, converted by molar mass. Read-outs that look alike come from different tables or passages of the source.

Tests used:
[1] = system: NCI-H727 cells; test: NCI-H727 CTG proliferation assay (120 h) (lung cancer, G12V); assay type: cell-based; settings: Homo sapiens
Procedure, shortened: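 Cells seeded at 500/well in RPMI + 10% FCS, left overnight, then dosed with a log dilution series in technical duplicate; untreated T0 plate read at compound addition. After 120 h at 37 °C, CellTiter-Glo luminescence read; viability as % of DMSO control, IC50 from four-parameter non-linear regression.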

[2] = system: Ba/F3 cells KRAS G12V; test: Ba/F3 proliferation assay (KRAS G12V); assay type: cell-based; settings: Mus musculus, BaF3, 72 h, AlamarBlue viability
Procedure, shortened: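 Ba/F3 cells retrovirally transduced with KRAS G12 mutant, puromycin-selected, grown IL-3-independent; seeded in RPMI-1640 + 10% FCS without IL-3. Logarithmic compound dose series in duplicate, 72 h at 37° C., AlamarBlue fluorescence as % of DMSO control; IC50 from four-parameter non-linear regression.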

[3] = Solubility measurement (DMSO solution precipitation method); assay type: physicochemical; settings: aqueous buffer, kinetic from dmso stock
Procedure, shortened: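 A 10 mM DMSO stock was diluted to 250 μM final in McIlvaine buffer at pH 4.5 or 6.8, then shaken 24 h at ambient temperature. After filtering off precipitate, filtrate concentration was quantified by LC-UV against a fully dissolved reference in acetonitrile/water (1:1).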

[4] = system: NCI-H358 cells; test: NCI-H358 CTG proliferation assay (120 h) (NSCLC, G12C); assay type: cell-based; settings: Homo sapiens
Procedure, shortened: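 Cells seeded at 200 per well in RPMI-1640 with 10% FCS, left overnight, then treated with a logarithmic dose series in duplicate for 120 h. Viability measured by CellTiter-Glo luminescence as percent of DMSO controls; IC50 from four-parameter non-linear regression.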

[5] = McIlvaine buffer pH 4.5, 24 h, read-out: solubility pH 4.5
[6] = McIlvaine buffer pH 6.8, 24 h, read-out: solubility pH 6.8

IC50 [1] | IC50 [2] | solubility at 24 h [3, 5] | solubility at 24 h [3, 6] | IC50 [4] | SMILES
3 nM | 2 nM | > 149 µg/mL | 114 µg/mL (≈ 166 µM) | 4 nM | CO[C@@H]1C[C@@H]([C@H](C)Oc2nc(-c3noc4c3CCC[C@@]43CCCc4sc(N)c(C#N)c43)nc3c2CN(C2COC2)C[C@]32CCOC2)N(C)C1 [II-14]
3 nM | 2 nM | > 147 µg/mL | > 148 µg/mL | 1 nM | C[C@H](Oc1nc(-c2noc3c2CCC[C@@]32CCCc3sc(N)c(C#N)c32)nc2c1CNC[C@]21CCOC1)[C@@H]1CCCN1C [II-15]
2 nM | 1 nM | > 138 µg/mL | 102 µg/mL (≈ 152 µM) | 5 nM | C[C@H](Oc1nc(-c2noc3c2CCC[C@@]32CCCc3sc(N)c(C#N)c32)nc2c1CN(C1COC1)C[C@]21CCOC1)[C@@H]1CC[C@H](C)N1C [II-17]
